Assay results taken from ChEMBL document CHEMBL3272295, “Drugs derived from cannabinoids. 5. delta6a,10a-Tetrahydrocannabinol and heterocyclic analogs containing aromatic side chains” (J Med Chem, 1976).
Active and inactive are the calls of the source. The rule behind the calls is not given here.

Key:
[1] = system: Rattus norvegicus; assay: Antihypertensive activity in spontaneously hypertensive rat model assessed as reduction in blood pressure at 3 mg/kg, po after 3 hrs; assay type: functional; design: scale not given: the % may be the effect or the level left
[2] = system: Rattus norvegicus; assay: Antihypertensive activity in spontaneously hypertensive rat model assessed as reduction in blood pressure at 0.3 mg/kg, po after 24 hrs; assay type: functional; design: scale not given: the % may be the effect or the level left
[3] = system: Canis familiaris; assay: Antianxiety activity in po dosed dog assessed as ataxia administered as single dose measured up to 24 hrs; assay type: functional; conditions: Canis lupus familiaris, read-out: MED
[4] = system: Rattus norvegicus; assay: Antipsychotic activity in rat assessed as reduction of methamphetamine-induced hyperactivity at 2.5 mg/kg, po administered prior to methamphetamine challenge relative to vehicle-treated control; assay type: functional; design: scale not given: the % may be the effect or the level left
[5] = system: Mus musculus; assay: Antianxiety activity in albino BALB/cJ mouse assessed as reduction in footshock-induced fighting behavior at 10 mg/kg, po after 30 to 90 mins; assay type: functional; design: scale not given: the % may be the effect or the level left
[6] = system: Rattus norvegicus; assay: Antihypertensive activity in spontaneously hypertensive rat model assessed as reduction in blood pressure at 0.3 mg/kg, po after 3 hrs; assay type: functional; design: scale not given: the % may be the effect or the level left
[7] = system: Mus musculus; assay: Anticonvulsant activity in po dosed mouse assessed as dose required to protect 80% of animal measured after 1 to 4 hrs by audiogenic seizure test; assay type: functional
[8] = system: Rattus norvegicus; assay: Antidiarrheal activity in Charles River rat assessed as inhibition of castor oil-induced diarrhea by measuring protected animals at 0.1 mg/kg, po administered 1 hr prior to castor oil challenge measured after 1 hr relative to vehicle-treated control; assay type: functional
[9] = system: Rhesus monkey; assay: Antianxiety activity in po dosed rhesus monkey assessed as antiagressive behavior measured every hour post dosing; assay type: functional; conditions: Macaca mulatta, read-out: MED
[10] = system: Rattus norvegicus; assay: Analgesic activity in po dosed Sprague-Dawley rat after 15 to 90 mins by tail flick test; assay type: functional
[11] = system: Rattus norvegicus; assay: Antianxiety activity in Long-Evans rat assessed as reduction in motor activity at 5 mg/kg, po after 2 hrs relative to vehicle-treated control; assay type: functional; design: scale not given: the % may be the effect or the level left
[12] = system: Rattus norvegicus; assay: Antipsychotic activity in rat assessed as reduction of methamphetamine-induced hyperactivity at 5 mg/kg, po administered prior to methamphetamine challenge relative to vehicle-treated control; assay type: functional; design: scale not given: the % may be the effect or the level left
[13] = Acute toxicity in po dosed mouse; assay type: organism-based; conditions: in vivo
[14] = system: Rattus norvegicus; assay: Antidiarrheal activity in Charles River rat assessed as inhibition of castor oil-induced diarrhea by measuring protected animals at 0.2 mg/kg, po administered 1 hr prior to castor oil challenge measured after 1 hr relative to vehicle-treated control; assay type: functional
[15] = system: Felis catus; assay: Hypnotic activity in cat assessed as increase in total sleep time at 0.5 mg/kg administered orally through diet measured for 12 hrs by EEG analysis; assay type: functional; conditions: route oral
[16] = system: Felis catus; assay: Hypnotic activity in cat assessed as increase in non-REM sleep time at 0.5 mg/kg administered orally through diet measured for 12 hrs by EEG analysis; assay type: functional; conditions: route oral
[17] = system: Mus musculus; assay: Analgesic activity in po dosed mouse assessed as inhibition of acetic acid-induced writhing administered 30 mins prior to acetic acid challenge measured after 5 mins for 20 mins; assay type: functional
[18] = system: Mus musculus; assay: Antianxiety activity in albino BALB/cJ mouse assessed as reduction in footshock-induced fighting behavior at 5 mg/kg, po after 30 to 90 mins; assay type: functional; design: scale not given: the % may be the effect or the level left
[19] = system: Rattus norvegicus; assay: Antihypertensive activity in spontaneously hypertensive rat model assessed as reduction in blood pressure at 3 mg/kg, po after 24 hrs; assay type: functional; design: scale not given: the % may be the effect or the level left
[20] = system: Rattus norvegicus; assay: Antiulcer activity in albino Sprague-Dawley rat stress ulcer model assessed as prevention of stress-induced gastric lesions by measuring ulcer index score at 40 mg/kg, po administered 30 mins prior to stress measured after 4 hrs; assay type: functional, Stomach
[21] = system: Rattus norvegicus; assay: Antihypertensive activity in spontaneously hypertensive rat model assessed as reduction in blood pressure at 10 mg/kg, po after 3 hrs; assay type: functional; design: scale not given: the % may be the effect or the level left
[22] = system: Rattus norvegicus; assay: Antipsychotic activity in rat assessed as reduction of methamphetamine-induced hyperactivity at 10 mg/kg, po administered prior to methamphetamine challenge relative to vehicle-treated control; assay type: functional; design: scale not given: the % may be the effect or the level left
[23] = system: Rattus norvegicus; assay: Antihypertensive activity in spontaneously hypertensive rat model assessed as reduction in blood pressure at 10 mg/kg, po after 24 hrs; assay type: functional; design: scale not given: the % may be the effect or the level left
[24] = species on record: Rattus norvegicus; assay: animal or person; assay type: functional; conditions: Charles River, route oral
Description: Antidiarrheal activity in Charles River rat assessed as inhibition of castor oil-induced diarrhea by measuring protected animals at 0.5 mg/kg, po administered 1 hr prior to castor oil challenge measured after 1 hr relative to vehicle-treated control

[25] = system: Rattus norvegicus; assay: Antiulcer activity in albino Sprague-Dawley rat shay ulcer model assessed as ulcer index scores at 20 mg/kg administered intraduodenally post pyloric ligation measured after 18.5 hrs relative to vehicle-treated control; assay type: functional
[26] = system: Rattus norvegicus; assay: Antisecretory activity in Sprague-Dawley rat assessed as decrease in volume at 50 mg/kg, po administered 30 mins prior to pylorus ligation measured after 4 hrs relative to control; assay type: functional; design: scale not given: the % may be the effect or the level left
[27] = system: Rattus norvegicus; assay: Antipsychotic activity in rat assessed as reduction of methamphetamine-induced hyperactivity at 20 mg/kg, po administered prior to methamphetamine challenge relative to vehicle-treated control; assay type: functional; design: scale not given: the % may be the effect or the level left
[28] = system: Rattus norvegicus; assay: Antisecretory activity in Sprague-Dawley rat assessed as decrease in acidity at 50 mg/kg, po administered 30 mins prior to pylorus ligation measured after 4 hrs relative to control; assay type: functional; design: scale not given: the % may be the effect or the level left
[29] = system: Rattus norvegicus; assay: Antisecretory activity in Sprague-Dawley rat assessed as decrease in pepsin output at 50 mg/kg, po administered 30 mins prior to pylorus ligation measured after 4 hrs relative to control; assay type: functional; design: scale not given: the % may be the effect or the level left
[30] = system: Rattus norvegicus; assay: Antiulcer activity in albino Sprague-Dawley rat shay ulcer model assessed as ulcer index scores at 50 mg/kg administered intraduodenally post pyloric ligation measured after 18.5 hrs relative to vehicle-treated control; assay type: functional; conditions: route intraduodenal
[31] = system: Rattus norvegicus; assay: Antisecretory activity in Sprague-Dawley rat assessed as decrease in acid output at 50 mg/kg, po administered 30 mins prior to pylorus ligation measured after 4 hrs relative to control; assay type: functional; design: scale not given: the % may be the effect or the level left
[32] = system: Rattus norvegicus; assay: Antianxiety activity in Long-Evans rat assessed as reduction in motor activity at 4 mg/kg, po after 2 hrs relative to vehicle-treated control; assay type: functional; design: scale not given: the % may be the effect or the level left
[33] = system: Rattus norvegicus; assay: Antiulcer activity in albino Sprague-Dawley rat reserpine ulcer model assessed as prevention of reserpine-induced gastric lesions by measuring ulcer index scores at 50 mg/kg, po administered 30 mins prior to reserpine challenge measured after 6 hrs; assay type: functional, Stomach
[34] = system: Felis catus; assay: Hypnotic activity in cat assessed as increase in non-REM sleep time at 0.25 mg/kg administered orally through diet measured for 12 hrs by EEG analysis; assay type: functional; conditions: route oral
[35] = system: Rattus norvegicus; assay: Antiulcer activity in albino Sprague-Dawley rat reserpine ulcer model assessed as prevention of reserpine-induced gastric lesions by measuring ulcer index scores at 10 mg/kg, po administered 30 mins prior to reserpine challenge measured after 6 hrs; assay type: functional; conditions: Stomach
[36] = system: Felis catus; assay: Hypnotic activity in cat assessed as increase in total sleep time at 0.25 mg/kg administered orally through diet measured for 12 hrs by EEG analysis; assay type: functional; conditions: route oral
[37] = system: Rattus norvegicus; assay: Antianxiety activity in Long-Evans rat assessed as reduction in motor activity at 1 mg/kg, po after 2 hrs relative to vehicle-treated control; assay type: functional; design: scale not given: the % may be the effect or the level left
[38] = system: Rattus norvegicus; assay: Antiulcer activity in albino Sprague-Dawley rat stress ulcer model assessed as prevention of stress-induced gastric lesions by measuring ulcer index score at 10 mg/kg, po administered 30 mins prior to stress measured after 4 hrs; assay type: functional, Stomach
[39] = system: Felis catus; assay: Hypnotic activity in cat assessed as decrease in non-REM sleep time at 0.5 mg/kg administered orally through diet measured for 12 hrs by EEG analysis; assay type: functional; conditions: route oral
[40] = system: Rattus norvegicus; assay: Antihypertensive activity in spontaneously hypertensive rat model assessed as reduction in blood pressure at 1 mg/kg, po after 24 hrs; assay type: functional; design: scale not given: the % may be the effect or the level left
[41] = system: Rattus norvegicus; assay: Antianxiety activity in Long-Evans rat assessed as reduction in motor activity at 10 mg/kg, po after 2 hrs relative to vehicle-treated control; assay type: functional; design: scale not given: the % may be the effect or the level left
[42] = system: Rattus norvegicus; assay: Increase in methamphetamine-induced hyperactivity in rat at 5 mg/kg, po administered prior to methamphetamine challenge relative to vehicle-treated control; assay type: functional
[43] = system: Rattus norvegicus; assay: Antianxiety activity in Long-Evans rat assessed as reduction in motor activity at 20 mg/kg, po after 2 hrs relative to vehicle-treated control; assay type: functional; design: scale not given: the % may be the effect or the level left
[44] = system: Mus musculus; assay: Analgesic activity in mouse assessed as inhibition of acetic acid-induced writhing at 10 mg/kg, po administered 30 mins prior to acetic acid challenge measured after 5 mins for 20 mins; assay type: functional
[45] = system: Rattus norvegicus; assay: Antihypertensive activity in spontaneously hypertensive rat model assessed as reduction in blood pressure at 1 mg/kg, po after 3 hrs; assay type: functional; design: scale not given: the % may be the effect or the level left

Q: Which Activity [1] does the source give for `CCCCCC(C)C(C)c1cc(O)c2c(c1)OC(C)(C)C1=C2CC(C)CC1` (stereo not drawn) here?
A: 37%

Q: What about the Activity [2] of the same molecule?
A: 12%

Q: What about the minimal effective dose [3] of the same molecule?
A: 1 mg/kg

Q: And the Activity [4]?
A: 48%

Q: What about the Activity [5] of the same molecule?
A: 92%

Q: And the Activity [6]?
A: 19%

Q: What about the Activity [7] of the same molecule?
A: 10 mg/kg

Q: What about the inhibition in vivo at 0.1 mg/kg [8] of the same molecule?
A: 50%

Q: What about the minimal effective dose [9] of the same molecule?
A: 10 mg/kg

Q: And the ED50 [10]?
A: 1.4 mg/kg

Q: What about the Activity [11] of the same molecule?
A: 96%

Q: And the Activity [12]?
A: 70%

Q: What about the LD50 [13] of the same molecule?
A: ≥ 1000 mg/kg

Q: And the inhibition in vivo at 0.2 mg/kg [14]?
A: 80%

Q: And the Time [15]?
A: 62 min

Q: And the Time [16]?
A: 122 min

Q: What about the ED50 [17] of the same molecule?
A: 3 mg/kg

Q: What about the Activity [18] of the same molecule?
A: 58%

Q: And the Activity [19]?
A: 28%

Q: What does the source list for `C#CCN1CCC2=C(C1)c1c(O)cc(C(C)CCCc3ccc(F)cc3)cc1OC2(C)C` (stereo not drawn)?
A: Activity [2]: 15%; minimal effective dose [3]: 1 mg/kg; Activity [5]: 47%; UI [20]: 1.4; Activity [6]: 22%; Activity [21]: 30%; Activity [22]: 8%; Activity [23]: 15%; ED50 [10]: 3.7 mg/kg; inhibition in vivo at 0.5 mg/kg [24]: 53%; Activity [25]: Active; Activity [26]: 33.3%; Activity [27]: 34%; Activity [28]: 12.8%; Activity [29]: 22.2%; UI [30]: 1.3; Activity [31]: 42.9%; Activity [32]: 77%; LD50 [13]: ≥ 1000 mg/kg; UI [33]: 1.5; Time [15]: 99 min; Time [34]: 45 min; Activity [35]: inactive; Time [36]: 45 min; Activity [37]: 60%; ED50 [17]: 5.3 mg/kg; UI [38]: 1.7; Time [39]: -20 min

Q: Which Activity [1] does the source give for `CC1CCC2=C(C1)c1c(O)cc(C(C)C(C)CCCc3ccc(F)cc3)cc1OC2(C)C` (stereo not drawn) here?
A: 33%

Q: What about the minimal effective dose [3] of the same molecule?
A: 10 mg/kg

Q: What about the Activity [40] of the same molecule?
A: 0%

Q: What about the Activity [5] of the same molecule?
A: 16%

Q: And the Activity [41]?
A: 36%

Q: What about the Activity [42] of the same molecule?
A: 23%

Q: And the Activity [43]?
A: 62%

Q: What about the LD50 [13] of the same molecule?
A: 500 mg/kg

Q: And the inhibition in vivo at 10 mg/kg [44]?
A: 32%

Q: And the Activity [19]?
A: 5%

Q: What about the Activity [45] of the same molecule?
A: 9%
